# Entries after “also recorded” stand apart in the source; their conditions may differ.
# What was measured:
# [1] = target: T1, Cx43 GJ plaques in ARPE-19 cells (Homo sapiens, UniProt P17302); assay: Immunocytochemistry and quantification of Cx43 plaques; type: cell-based
# T1 construct: a native human cell line, retinal pigmented epithelial cells (ARPE-19), which reportedly has an abundant expression of Cx43; endogenous in cells; host or cells: ARPE-19
# Experimental: In the below Examples 3, 6 and 7 using human retinal epithelial (ARPE-19) cells, the cells were grown in DMEM/F: 12 (Invitrogen), supplemented with 10% fetal calf serum (FCS), 100 units/mL of penicillin, 100 μg/mL of streptomycin, and 0.25 μg/mL of Fungizone® Antimycotic (Invitrogen).
# Cells were seeded at 0.05×10^6 per well in 8-well sterile glass microscope chamber slides (Falcon, Corning Life Sciences), and the monolayer was labeled for connexin expression at ˜90-100% confluency. The following steps were conducted at room temperature. Cells were fixed in 4% paraformaldehyde (P6148, Sigma-Aldrich) in PBS with 0.1 mM CaCl2 for 10 min, and washed three times in PBS with 0.1 mM CaCl2. After blocking in 10% normal goat serum in PBS with 0.1 mM CaCl2 for one hour, cells were incubated overnight in primary antibody solution (rabbit anti-Cx43, Sigma C6219) diluted in PBS with 0.1 mM CaCl2. The chamber slides were then washed three times with PBS containing 0.1 mM CaCl2 for 10 minutes, and incubated for a further 45 minutes in goat anti-rabbit Alexa 568 conjugated secondary antibody (Invitrogen #A11036). Cells were counter labeled with DAPI for 5 minutes and washed three times with PBS containing 0.1 mM CaCl2. Chamber wells were removed and cells were mounted anti-fade medium (Citiflour AF-1). Dilution ratios for specified primary and secondary antibodies were used according to manufacturer's recommendations.
# ARPE-19 cells were grown until confluent in 8-well glass chamber-slides (BD Falcon). Confluent monolayers of ARPE-19 cells were incubated at a final concentration of 5 to 500 μM) Tonabersat, and/or 10 mM NH4Cl (H. Qin, et al., The Journal of biological chemistry 278, 30005 (Aug. 8, 2003)) in culture medium for 1 or 6 hours. Cells were fixed in 4% PFA (ProSciTech) at pH 7.4 for 10 min at room temperature, permeabilized with 0.05% Triton-X100 in PBS, and incubated in 10% normal goat serum to block non-specific labelling. Cells were rinsed three times with PBS containing 0.1 mM CaCl2 between each fixation, permeabilization, and blocking steps. Cx43 polyclonal rabbit antibody (C6219, Sigma, 1:2000) was applied for 24 hours, followed by a goat anti-rabbit Alexa Fluor® 568 secondary antibody (Invitrogen, 1:200) for 45 minutes. Nuclei were counterstained with DAPI (Invitrogen) at 10,000-fold dilution for 5 mins, and mounted with Citifluor™ mounting medium. Images were visualised and captured using a 63× oil immersion lens on an Olympus FV1000 upright confocal laser scanning microscope and software. The transfluor feature in MetaXpress® Image acquisition and analysis software (Version 5.3.0.1, Molecular Devices) was used to automate and quantify the total area of Cx43 plaques per image. Results represent mean±standard error and statistical tests were conducted using one-way ANOVA and Tukey's multiple comparisons test.
# retinal ganglion cells = assay: In vivo retinal ischaemia-reperfusion model, Tonabersat; design: species or system Wistar rats; details: 7 days; for Retinal ganglion cell density: ischaemic eyes, mean±standard error
# Experimental: Animals were anesthetized with an intraperitoneal injection of ketamine (60 mg/kg) and medetomidine hydrochloride (0.4 mg/kg) and the cornea anaesthetized with oxybuprocaine hydrochloride (0.4%). The technique of retinal ischaemia-reperfusion has previously been described (D. Sun, et al., The Journal of comparative neurology 505, 114 (Nov. 1, 2007)). Briefly, the left anterior chamber was cannulated with a 30-gauge infusion needle connected by silicone tubing to a reservoir of sterile 0.9% saline. Cannulation was performed using a stereotaxic manipulator arm to avoid injury to the corneal endothelium, iris, or lens. The intraocular pressure of the cannulated eye was raised to 120 mmHg for 60 minutes by elevating the saline reservoir. Retinal ischaemia-reperfusion was confirmed by pallor of the posterior segment. After 60 minutes, the cannula was removed and reperfusion of the retinal vessels was confirmed by ophthalmoscopy. Three experimental arms were applied at the end of 60 minutes of ischaemia. These included: no treatment (n=6), 10 mg/kg Tonabersat (n=6), or 1 mg/kg Tonabersat (n=4). Systemic delivery of 0.25 mL of a 10 mg/ml or 1 mg/ml Tonabersat solution diluted in 40% PEG, 60% cyclodextrin solution was achieved through intraperitoneal delivery at the start of reperfusion. A final blood Tonabersat concentration of 0.319 mM or 0.0319 mM was intended, assuming a blood volume of 20 mL and total systemic uptake of peptide. Animals were euthanized with CO2 at 7 days after reperfusion. One uninjured animal was euthanized to obtain uninjured retinas as normal controls.
# After euthanasia eyes were enucleated, and the cornea, lens, and vitreous humour removed. The dorsal aspect of the retina was notched to retain orientation. The retina and sclera were fixed in 4% PFA in PBS for 60 minutes at room temperature (RT). The retina was then carefully removed from the sclera and permeabilized via incubation in 0.5% Triton-X100 in PBS solution for 15 minutes at […] Retinas were mounted onto SuperFrost Plus slides using citifluor mounting medium, and imaged.
# Two fields in each quadrant of each retina were imaged giving a total of eight images per retina. This method insured similar locations were assessed between different eyes and avoided any possible area bias present in the retina. Retinal ganglion cell (RGC) labelling was imaged at 10× magnification. […] Spots of one or two pixels that resulted from noise and artefacts that were clearly not RGC of origin were excluded during particle counts. RGC density was calculated as the number of RGCs per cm2.
# T1 sequence (P17302 2-382 limits assumed): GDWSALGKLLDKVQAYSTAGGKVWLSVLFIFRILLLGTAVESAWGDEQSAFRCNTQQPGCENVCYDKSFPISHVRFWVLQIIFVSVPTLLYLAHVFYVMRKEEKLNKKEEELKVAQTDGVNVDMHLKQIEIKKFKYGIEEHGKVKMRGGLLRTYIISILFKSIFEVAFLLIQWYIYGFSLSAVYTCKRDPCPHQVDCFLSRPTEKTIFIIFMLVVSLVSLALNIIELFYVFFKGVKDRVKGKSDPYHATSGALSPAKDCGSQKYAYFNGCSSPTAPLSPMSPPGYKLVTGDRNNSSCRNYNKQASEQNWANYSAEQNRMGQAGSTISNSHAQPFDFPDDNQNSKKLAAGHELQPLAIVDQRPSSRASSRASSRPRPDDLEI
smiles,measurement,setting,value
"CC(=O)c1ccc2c(c1)[C@H](NC(=O)c1ccc(F)c(Cl)c1)[C@H](O)C(C)(C)O2 [Tonabersat, N-[(3S,4S)-6-acetyl-3-hydroxy-2,2-dimethyl-3,4-dihydrochromen-4-yl]-3-chloro-4-fluorobenzamide]","total area of Cx43 plaques per cell, normalized to untreated control","[1]; 5 μM, 10 μM or 50 μM, 1 hour",no significant reduction in Cx43 plaques
same,Connexin43 gap junction labelling,"[1]; 50 μM, 6 hours",most junctions have been internalised or lost; also recorded: total gap junction loss at cell-cell interfaces
same,increase in Cx43 labelling with 10 mM NH4Cl compared to Tonabersat alone,"[1]; 100 μM, 1 hour",104.8%
same,"total area of Cx43 plaques per cell, normalized to untreated control","[1]; 100 μM, 1 hour",52.8±5.6%
same,"total area of Cx43 plaques per cell, normalized to untreated control","[1]; 100 μM, 6 hours",66.5±5.4%
same,increase in Cx43 labelling with 10 mM NH4Cl compared to Tonabersat alone,"[1]; 200 μM, 1 hour",65.4%
same,"total area of Cx43 plaques per cell, normalized to untreated control","[1]; 200 μM, 1 hour",63.2±5.6%
same,"total area of Cx43 plaques per cell, normalized to untreated control","[1]; 200 μM, 6 hours",62.5±2.3%
same,"total area of Cx43 plaques per cell, normalized to untreated control","[1]; 500 μM, 6 hours",60.2±13.6%
same,Connexin43 gap junction labelling,"[1]; 100 micromolar, 6 hours",very little Connexin43 labelling remains
same,RGC loss compared to normal controls,retinal ganglion cells; 1 mg/kg intraperitoneal at start of reperfusion,18%
same,Retinal ganglion cell density,retinal ganglion cells; 1 mg/kg intraperitoneal,199927±26058 cells/cm2
same,RGC loss compared to normal controls,retinal ganglion cells; 10 mg/kg intraperitoneal at start of reperfusion,35%
same,Retinal ganglion cell density,retinal ganglion cells; 10 mg/kg intraperitoneal,158739±26370 cells/cm2

# From US11401516B2, “Channel modulators” (AUCKLAND UNISERVICES LIMITED, priority 2014, dated 2022)
